Assay results reported in ChEMBL document CHEMBL5058641, “Data for DCP probe TP-050” (2022).

Key:
[1] = target: Sodium-dependent noradrenaline transporter (Homo sapiens, UniProt P23975); assay: NET Eurofins SafetyScreen (Other); parameters: species or system Blocker
[2] = target: 5-hydroxytryptamine receptor 2A (Homo sapiens, UniProt P28223); details: Compound concentration 10.0 uM
5-hydroxytryptamine receptor 2A, sequence (P28223 whole entry): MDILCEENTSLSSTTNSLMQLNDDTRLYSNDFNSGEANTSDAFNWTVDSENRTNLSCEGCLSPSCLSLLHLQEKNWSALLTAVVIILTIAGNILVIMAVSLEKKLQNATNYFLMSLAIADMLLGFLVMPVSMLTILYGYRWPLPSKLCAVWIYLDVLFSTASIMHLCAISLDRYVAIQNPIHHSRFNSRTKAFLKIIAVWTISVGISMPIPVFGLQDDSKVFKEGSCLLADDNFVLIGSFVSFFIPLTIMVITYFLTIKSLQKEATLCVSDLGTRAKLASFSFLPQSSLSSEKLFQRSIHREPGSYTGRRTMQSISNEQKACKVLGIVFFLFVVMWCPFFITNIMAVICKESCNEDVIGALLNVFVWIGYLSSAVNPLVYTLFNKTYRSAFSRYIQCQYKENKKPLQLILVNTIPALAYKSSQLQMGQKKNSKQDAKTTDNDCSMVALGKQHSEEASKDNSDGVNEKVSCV

Sodium-dependent noradrenaline transporter, sequence (P23975 whole entry): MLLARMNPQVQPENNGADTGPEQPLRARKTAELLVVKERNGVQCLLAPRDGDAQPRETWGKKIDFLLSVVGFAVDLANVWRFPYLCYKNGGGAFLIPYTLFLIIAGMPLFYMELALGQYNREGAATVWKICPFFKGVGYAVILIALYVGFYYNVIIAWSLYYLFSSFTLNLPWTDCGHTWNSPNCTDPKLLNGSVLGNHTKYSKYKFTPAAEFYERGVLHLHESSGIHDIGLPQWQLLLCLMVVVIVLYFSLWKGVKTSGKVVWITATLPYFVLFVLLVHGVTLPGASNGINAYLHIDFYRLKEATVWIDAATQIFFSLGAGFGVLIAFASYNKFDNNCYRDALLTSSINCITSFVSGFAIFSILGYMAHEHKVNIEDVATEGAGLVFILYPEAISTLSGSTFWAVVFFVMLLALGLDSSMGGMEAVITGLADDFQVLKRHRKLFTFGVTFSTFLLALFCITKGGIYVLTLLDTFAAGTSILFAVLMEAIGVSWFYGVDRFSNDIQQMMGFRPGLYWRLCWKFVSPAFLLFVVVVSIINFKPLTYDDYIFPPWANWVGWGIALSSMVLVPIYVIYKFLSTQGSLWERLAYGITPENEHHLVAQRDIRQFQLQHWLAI

Which results are given for `Cc1cn([C@H](C)CC#N)c(=O)c2cc(Cn3nc(C(F)F)cc3Cl)nn12`?
IC50 [1]: > 10 µM; inhibition [2]: -5.37%
